From patent publication US10072001B2, “Tank-binding kinase inhibitor compounds” (Gilead Sciences, Inc., priority 2014, dated 2018)
pIC50: −log10 of the molar value.

What was measured:
IKKε = IKKε (Homo sapiens (Human), UniProt Q14164); experiment: TR-FRET kinase assay, IKKε; assay type: biochemical; details: full length recombinant IKKε 0.3 nM, 2x Km ATP, 1 μM peptide, 240 min at 25° C.; geometric mean of minimum four determinations
Description: Biological Assay for TBK1 and IKKs:

TBK1 = TBK1 (Homo sapiens (Human), UniProt Q9UHD2); experiment: TR-FRET kinase assay, TBK1; details: read-out: TBK1-IC50; full length recombinant TBK1 2.5 nM, 2x Km ATP, 1 μM peptide, 240 min at 25° C.; geometric mean of minimum four determinations
TBK1, sequence (Q9UHD2 whole entry): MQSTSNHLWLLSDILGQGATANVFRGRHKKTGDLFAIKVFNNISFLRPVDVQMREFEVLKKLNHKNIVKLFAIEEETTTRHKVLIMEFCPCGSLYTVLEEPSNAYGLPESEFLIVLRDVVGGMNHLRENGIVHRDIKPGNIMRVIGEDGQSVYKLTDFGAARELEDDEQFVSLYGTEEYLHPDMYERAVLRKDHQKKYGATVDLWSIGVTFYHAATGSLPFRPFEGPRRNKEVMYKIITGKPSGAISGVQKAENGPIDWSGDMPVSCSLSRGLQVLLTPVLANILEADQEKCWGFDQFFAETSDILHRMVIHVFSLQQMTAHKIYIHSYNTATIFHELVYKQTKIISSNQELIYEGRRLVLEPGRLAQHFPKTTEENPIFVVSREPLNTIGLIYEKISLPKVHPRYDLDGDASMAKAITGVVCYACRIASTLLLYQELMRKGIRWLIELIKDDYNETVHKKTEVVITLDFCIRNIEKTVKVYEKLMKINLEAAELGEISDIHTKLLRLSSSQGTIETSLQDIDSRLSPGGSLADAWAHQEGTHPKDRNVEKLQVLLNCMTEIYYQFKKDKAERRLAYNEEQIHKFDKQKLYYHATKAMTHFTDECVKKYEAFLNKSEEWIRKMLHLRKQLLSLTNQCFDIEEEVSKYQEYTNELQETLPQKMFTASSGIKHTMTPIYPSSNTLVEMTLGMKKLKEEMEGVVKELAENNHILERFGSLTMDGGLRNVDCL
Description: Enzymatic activity of IKKε and TBK1 was measured using a homogeneous time resolved fluorescence resonance energy transfer (TR-FRET) assay that monitors enzyme dependent phosphorylation of a biotinylated serine/threonine peptide substrate. […] TBK1 and IKKs were expressed and purified as full length recombinant proteins. Detection reagents for the assay were purchased from Cisbio. […] After an assay reaction time of 240 minutes at 25° C., reactions were terminated with EDTA.
Amount of phosphorylated peptide was determined by the addition of 125 nM streptavidin XL665 and europium cryptate labeled anti-phospho monoclonal antibody and the resulting TR-FRET signal was recorded on an Envision plate reader (Ex: 340 nm; Em: 615/665 nm; 100 μs delay and 200 μs read window). […] All IC50 values represent geometric mean values of a minimum of four determinations.

IKKε, sequence (Q14164 whole entry): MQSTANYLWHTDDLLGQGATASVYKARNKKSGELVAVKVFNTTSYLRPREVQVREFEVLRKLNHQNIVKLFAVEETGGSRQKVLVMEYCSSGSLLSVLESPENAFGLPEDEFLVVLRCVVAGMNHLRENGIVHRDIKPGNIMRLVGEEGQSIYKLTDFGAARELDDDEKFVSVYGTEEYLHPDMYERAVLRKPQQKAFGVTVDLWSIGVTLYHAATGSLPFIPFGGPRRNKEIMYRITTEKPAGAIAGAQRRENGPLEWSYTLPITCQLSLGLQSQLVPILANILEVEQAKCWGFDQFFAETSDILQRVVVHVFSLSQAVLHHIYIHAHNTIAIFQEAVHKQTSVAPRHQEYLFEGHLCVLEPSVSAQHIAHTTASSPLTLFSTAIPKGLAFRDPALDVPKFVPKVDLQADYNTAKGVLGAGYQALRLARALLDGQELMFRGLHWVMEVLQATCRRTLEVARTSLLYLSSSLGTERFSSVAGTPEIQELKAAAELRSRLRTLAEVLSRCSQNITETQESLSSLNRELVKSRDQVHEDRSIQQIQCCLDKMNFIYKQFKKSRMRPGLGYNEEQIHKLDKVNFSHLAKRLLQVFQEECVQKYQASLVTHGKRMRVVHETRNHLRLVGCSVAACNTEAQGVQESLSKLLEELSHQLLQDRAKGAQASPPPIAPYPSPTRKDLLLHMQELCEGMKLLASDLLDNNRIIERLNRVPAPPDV

| Structure (SMILES) | pIC50 (IKKε) | pIC50 (TBK1) |
| --- | --- | --- |
| COc1cc(-c2cc3c(-c4ccc(OC5CCOCC5)c(C#N)c4)ncnc3[nH]2)ccc1N1CCN(C2COC2)CC1 [Example 143, 5-(6-(3-methoxy-4-(4-(oxetan-3-yl)piperazin-1-yl)phenyl)-7H-pyrrolo[2,3-d]pyrimidin-4-yl)-2-((tetrahydro-2H-pyran-4-yl)oxy)benzonitrile] | 8.16 | 8.99 |
| N#CCC(=O)N1CCC(Oc2ccc(-c3ccnc4[nH]c(-c5ccc(N6CCOCC6)cc5)cc34)cc2C#N)CC1 [Example 20, 2-((1-(2-cyanoacetyl)piperidin-4-yl)oxy)-5-(2-(4-morpholinophenyl)-1H-pyrrolo[2,3-b]pyridin-4-yl)benzonitrile] | 7.56 | 8.03 |
| COc1cc(-c2cc3c(-c4ccc(OC5CCN(C(=O)CO)CC5(F)F)c(C#N)c4)ncnc3[nH]2)ccc1N1CCN(C2COC2)CC1 (stereo not drawn) [Example 141, 2-((3,3-difluoro-1-(2-hydroxyacetyl)piperidin-4-yl)oxy)-5-(6-(3-methoxy-4-(4-(oxetan-3-yl)piperazin-1-yl)phenyl)-7H-pyrrolo[2,3-d]pyrimidin-4-yl)benzonitrile] | 9.16 | 9.12 |
| COc1cc(-c2cc3c(-c4ccc(OC5CCNCC5(F)F)c(C#N)c4)ncnc3[nH]2)ccc1N1CCN(C2COC2)CC1 (stereo not drawn) [Example 140, 2-((3,3-difluoropiperidin-4-yl)oxy)-5-(6-(3-methoxy-4-(4-(oxetan-3-yl)piperazin-1-yl)phenyl)-7H-pyrrolo[2,3-d]pyrimidin-4-yl)benzonitrile] | 7.48 | 8.45 |
| N#Cc1cc(-c2ccnc3[nH]c(-c4ccc(N5CCOCC5)cc4)nc23)ccc1OCC1CC1 [Example 301, 2-(cyclopropylmethoxy)-5-(2-(4-morpholinophenyl)-3H-imidazo[4,5-b]pyridin-7-yl)benzonitrile] | < 6.00 | 7.36 |
| N#Cc1cc(-c2ccnc3[nH]c(-c4ccc5[nH]ccc5c4)cc23)ccc1OC1CCOCC1 [Example 45, 5-(2-(1H-indol-5-yl)-1H-pyrrolo[2,3-b]pyridin-4-yl)-2-((tetrahydro-2H-pyran-4-yl)oxy)benzonitrile] | 7.49 | 7.49 |
| N#Cc1cc(-c2ccnc3[nH]c(-c4ccc(N5CCOCC5)cc4)cc23)ccc1CN1CCOCC1 [Example 70, 2-(morpholinomethyl)-5-(2-(4-morpholinophenyl)-1H-pyrrolo[2,3-b]pyridin-4-yl)benzonitrile] | 6.88 | 7.98 |
| N#Cc1cc(-c2cc3c(-c4ccc(N5CC(O)C5)c(C#N)c4)ncnc3[nH]2)ccc1N1CC(O)C1 [Example 230, 5,5′-(7H-pyrrolo[2,3-d]pyrimidine-4,6-diyl)bis(2-(3-hydroxyazetidin-1-yl)benzonitrile)] | 6.49 | 7.87 |
| N#Cc1cc(-c2ncnc3[nH]c(-c4ccc5c(c4)NCCO5)cc23)ccc1OC1CCOCC1 [Example 191, 5-(6-(3,4-dihydro-2H-benzo[b][1,4]oxazin-6-yl)-7H-pyrrolo[2,3-d]pyrimidin-4-yl)-2-((tetrahydro-2H-pyran-4-yl)oxy)benzonitrile] | 7.90 | 8.29 |
| N#Cc1cc(-c2ncnc3[nH]c(-c4ccc(N5CCOCC5)cc4)cc23)ccc1CN1CCOCC1 [Example 112, 2-(morpholinomethyl)-5-(6-(4-morpholinophenyl)-7H-pyrrolo[2,3-d]pyrimidin-4-yl)benzonitrile] | 7.07 | 7.71 |
| N#Cc1cc(-c2ncnc3[nH]c(-c4ccc(C5CCN(CC(F)(F)F)CC5)cc4)nc23)ccc1OC1CCN(C=O)CC1 [Example 259, 2-((1-formylpiperidin-4-yl)oxy)-5-(8-(4-(1-(2,2,2-trifluoroethyl)piperidin-4-yl)phenyl)-9H-purin-6-yl)benzonitrile] | 7.34 | 7.91 |
| N#Cc1cc(-c2ccnc3[nH]c(-c4ccccc4)cc23)ccc1OC1CCOCC1 [Example 83, 5-(2-phenyl-1H-pyrrolo[2,3-b]pyridin-4-yl)-2-((tetrahydro-2H-pyran-4-yl)oxy)benzonitrile] | 7.70 | < 6.00 |
